From PubChem BioAssay (NCI)
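Grown in 96-well plates, cells were treated for 48 hours with each compound at five concentrations. Insufficient inhibition: endpoint recorded as highest concentration tested. Definition used: TGI = concentration required for complete inhibition of growth.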

Columns and labels:
Assay in all cases: growth of human tumour cells (NCI), 48 h
HCC-2998 colon = system: HCC-2998 colon
SNB-75 CNS = system: SNB-75 CNS
UACC-62 melanoma = system: UACC-62 melanoma
TK-10 renal = system: TK-10 renal
PC-3 prostate = system: PC-3 prostate
MDA-N = system: MDA-N
MCF7 breast = system: MCF7 breast
786-0 renal = system: 786-0 renal
OVCAR-8 ovarian = system: OVCAR-8 ovarian
M14 melanoma = system: M14 melanoma
HCT-15 colon = system: HCT-15 colon
SN12C renal = system: SN12C renal
A549 NSCLC = system: A549 NSCLC
SK-MEL-5 melanoma = system: SK-MEL-5 melanoma
NCI-H23 lung = system: NCI-H23 lung
HS 578T breast = system: HS 578T breast
T-47D breast = system: T-47D breast
NCI/ADR-RES ovarian = system: NCI/ADR-RES ovarian
K-562 leukemia = system: K-562 leukemia
OVCAR-4 ovarian = system: OVCAR-4 ovarian
SF-539 CNS = system: SF-539 CNS
LOX IMVI melanoma = system: LOX IMVI melanoma
MDA-MB-231 breast = system: MDA-MB-231 breast
SF-268 CNS = system: SF-268 CNS
SR leukemia = system: SR leukemia
MOLT-4 leukemia = system: MOLT-4 leukemia
KM12 colon = system: KM12 colon
OVCAR-3 ovarian = system: OVCAR-3 ovarian
HOP-92 NSCLC = system: HOP-92 NSCLC
RXF 393 renal = system: RXF 393 renal
OVCAR-5 ovarian = system: OVCAR-5 ovarian
RPMI-8226 leukemia = system: RPMI-8226 leukemia
SK-MEL-28 melanoma = system: SK-MEL-28 melanoma
IGROV1 ovarian = system: IGROV1 ovarian
CAKI-1 renal = system: CAKI-1 renal
COLO 205 colon = system: COLO 205 colon
UACC-257 melanoma = system: UACC-257 melanoma
SK-MEL-2 melanoma = system: SK-MEL-2 melanoma
MDA-MB-435 = system: MDA-MB-435
A498 renal = system: A498 renal
NCI-H226 lung = system: NCI-H226 lung
U251 CNS = system: U251 CNS
NCI-H460 lung = system: NCI-H460 lung
NCI-H522 lung = system: NCI-H522 lung
MALME-3M melanoma = system: MALME-3M melanoma
UO-31 renal = system: UO-31 renal
SK-OV-3 ovarian = system: SK-OV-3 ovarian
SW-620 colon = system: SW-620 colon
BT-549 breast = system: BT-549 breast
HL-60(TB) leukemia = system: HL-60(TB) leukemia
CCRF-CEM leukemia = system: CCRF-CEM leukemia
EKVX NSCLC = system: EKVX NSCLC
DU-145 prostate = system: DU-145 prostate
HT29 colon = system: HT29 colon
HOP-62 NSCLC = system: HOP-62 NSCLC
SNB-19 CNS = system: SNB-19 CNS
SF-295 CNS = system: SF-295 CNS
ACHN renal = system: ACHN renal
HCT-116 colon = system: HCT-116 colon

COC(=O)c1csc([C@@H](OC(=O)[C@H](C)[C@H](CCCC(C)(Cl)Cl)OC(=O)c2csc([C@H](O)CO)n2)C(C)C)n1
TGI (HCC-2998 colon): 22.2 µM
TGI (SNB-75 CNS): 11 µM
TGI (UACC-62 melanoma): 24.3 µM
TGI (TK-10 renal): 24.9 µM
TGI (PC-3 prostate): 26.7 µM
TGI (MDA-N): 21.3 µM
TGI (MCF7 breast): 35 µM
TGI (786-0 renal): 28.3 µM
TGI (OVCAR-8 ovarian): 22.4 µM
TGI (M14 melanoma): 31.6 µM
TGI (HCT-15 colon): 31 µM
TGI (SN12C renal): 4.41 µM
TGI (A549 NSCLC): 32.1 µM
TGI (SK-MEL-5 melanoma): 31.8 µM
TGI (NCI-H23 lung): 30.9 µM
TGI (HS 578T breast): 6.65 µM
TGI (T-47D breast): 36.5 µM
TGI (NCI/ADR-RES ovarian): 45.4 µM
TGI (K-562 leukemia): 33.6 µM
TGI (OVCAR-4 ovarian): 24.5 µM
TGI (SF-539 CNS): 8.62 µM
TGI (LOX IMVI melanoma): 23.5 µM
TGI (MDA-MB-231 breast): 36.1 µM
TGI (SF-268 CNS): 34.8 µM
TGI (SR leukemia): 32.2 µM
TGI (MOLT-4 leukemia): 32.2 µM
TGI (KM12 colon): 29.4 µM
TGI (OVCAR-3 ovarian): 30.8 µM
TGI (HOP-92 NSCLC): 23 µM
TGI (RXF 393 renal): 4.53 µM
TGI (OVCAR-5 ovarian): 29 µM
TGI (RPMI-8226 leukemia): 34.1 µM
TGI (SK-MEL-28 melanoma): 24.2 µM
TGI (IGROV1 ovarian): 24.1 µM
TGI (CAKI-1 renal): 32.7 µM
TGI (COLO 205 colon): 32.3 µM
TGI (UACC-257 melanoma): 23.1 µM
TGI (SK-MEL-2 melanoma): 28.9 µM
TGI (MDA-MB-435): 26.8 µM
TGI (A498 renal): 32.7 µM
TGI (NCI-H226 lung): 39.7 µM
TGI (U251 CNS): 32 µM
TGI (NCI-H460 lung): 23.2 µM
TGI (NCI-H522 lung): 32.9 µM
TGI (MALME-3M melanoma): 34.3 µM
TGI (UO-31 renal): 19.9 µM
TGI (SK-OV-3 ovarian): 29.7 µM
TGI (SW-620 colon): 32.6 µM
TGI (BT-549 breast): 31 µM
TGI (HL-60(TB) leukemia): 35.1 µM
TGI (CCRF-CEM leukemia): 34.8 µM
TGI (EKVX NSCLC): 33.4 µM
TGI (DU-145 prostate): 24.8 µM
TGI (HT29 colon): 36.8 µM
TGI (HOP-62 NSCLC): 33.6 µM
TGI (SNB-19 CNS): 26.8 µM
TGI (SF-295 CNS): 29.1 µM
TGI (ACHN renal): 25.8 µM

O=C(O)CCCc1ccc2ccc3ccccc3c2c1
TGI (SNB-75 CNS): 87.4 µM
TGI (UACC-62 melanoma): > 100 µM
TGI (TK-10 renal): > 100 µM
TGI (PC-3 prostate): > 100 µM
TGI (MDA-N): > 100 µM
TGI (MCF7 breast): > 100 µM
TGI (786-0 renal): > 100 µM
TGI (OVCAR-8 ovarian): > 100 µM
TGI (M14 melanoma): > 100 µM
TGI (HCT-15 colon): > 100 µM
TGI (SN12C renal): > 100 µM
TGI (A549 NSCLC): > 100 µM
TGI (SK-MEL-5 melanoma): > 100 µM
TGI (NCI-H23 lung): > 100 µM
TGI (HS 578T breast): > 100 µM
TGI (T-47D breast): > 100 µM
TGI (NCI/ADR-RES ovarian): > 100 µM
TGI (K-562 leukemia): > 100 µM
TGI (OVCAR-4 ovarian): > 100 µM
TGI (LOX IMVI melanoma): > 100 µM
TGI (MDA-MB-231 breast): > 100 µM
TGI (SF-268 CNS): > 100 µM
TGI (SR leukemia): > 100 µM
TGI (MOLT-4 leukemia): > 100 µM
TGI (KM12 colon): > 100 µM
TGI (OVCAR-3 ovarian): > 100 µM
TGI (HOP-92 NSCLC): > 100 µM
TGI (RXF 393 renal): > 100 µM
TGI (OVCAR-5 ovarian): > 100 µM
TGI (RPMI-8226 leukemia): > 100 µM
TGI (SK-MEL-28 melanoma): > 100 µM
TGI (IGROV1 ovarian): > 100 µM
TGI (CAKI-1 renal): > 100 µM
TGI (COLO 205 colon): > 100 µM
TGI (UACC-257 melanoma): > 100 µM
TGI (SK-MEL-2 melanoma): > 100 µM
TGI (MDA-MB-435): > 100 µM
TGI (A498 renal): > 100 µM
TGI (NCI-H226 lung): > 100 µM
TGI (U251 CNS): > 100 µM
TGI (HCT-116 colon): > 100 µM
TGI (NCI-H460 lung): > 100 µM
TGI (NCI-H522 lung): > 100 µM
TGI (MALME-3M melanoma): > 100 µM
TGI (UO-31 renal): > 100 µM
TGI (BT-549 breast): > 100 µM
TGI (EKVX NSCLC): > 100 µM
TGI (DU-145 prostate): > 100 µM
TGI (HT29 colon): > 100 µM
TGI (HOP-62 NSCLC): > 100 µM
TGI (SNB-19 CNS): > 100 µM
TGI (SF-295 CNS): > 100 µM
TGI (ACHN renal): > 100 µM

NC(N)=NS(=O)(=O)c1ccc(NNc2c3ccccc3nc3ccccc23)cc1
TGI (HCC-2998 colon): 27.3 µM
TGI (SNB-75 CNS): 50.3 µM
TGI (UACC-62 melanoma): 35.3 µM
TGI (TK-10 renal): 42.7 µM
TGI (PC-3 prostate): 25.3 µM
TGI (MDA-N): 28.4 µM
TGI (MCF7 breast): 16.8 µM
TGI (786-0 renal): 25.5 µM
TGI (OVCAR-8 ovarian): 31.1 µM
TGI (M14 melanoma): 26.8 µM
TGI (HCT-15 colon): > 100 µM
TGI (SN12C renal): 35.6 µM
TGI (A549 NSCLC): 45.4 µM
TGI (SK-MEL-5 melanoma): 22.3 µM
TGI (NCI-H23 lung): 36.4 µM
TGI (HS 578T breast): 93.6 µM
TGI (T-47D breast): 41.9 µM
TGI (NCI/ADR-RES ovarian): 90.7 µM
TGI (K-562 leukemia): 30.9 µM
TGI (OVCAR-4 ovarian): 21.7 µM
TGI (SF-539 CNS): 36.7 µM
TGI (LOX IMVI melanoma): 18.2 µM
TGI (MDA-MB-231 breast): 37 µM
TGI (SF-268 CNS): 34 µM
TGI (SR leukemia): 13.7 µM
TGI (MOLT-4 leukemia): 2.85 µM
TGI (KM12 colon): 28.6 µM
TGI (OVCAR-3 ovarian): 15.7 µM
TGI (HOP-92 NSCLC): 31.5 µM
TGI (RXF 393 renal): 36 µM
TGI (OVCAR-5 ovarian): 48.2 µM
TGI (RPMI-8226 leukemia): 44.9 µM
TGI (SK-MEL-28 melanoma): 29.2 µM
TGI (IGROV1 ovarian): 81.7 µM
TGI (CAKI-1 renal): 55.1 µM
TGI (COLO 205 colon): 33.2 µM
TGI (UACC-257 melanoma): 46.1 µM
TGI (SK-MEL-2 melanoma): 37.1 µM
TGI (MDA-MB-435): 33.9 µM
TGI (NCI-H226 lung): 20.5 µM
TGI (U251 CNS): 24.2 µM
TGI (HCT-116 colon): 32.8 µM
TGI (NCI-H460 lung): 23.4 µM
TGI (NCI-H522 lung): 17.5 µM
TGI (MALME-3M melanoma): 32.8 µM
TGI (UO-31 renal): 66.7 µM
TGI (SK-OV-3 ovarian): 40.3 µM
TGI (SW-620 colon): 33.7 µM
TGI (BT-549 breast): 28.5 µM
TGI (HL-60(TB) leukemia): 43.9 µM
TGI (CCRF-CEM leukemia): 25.4 µM
TGI (EKVX NSCLC): 34.3 µM
TGI (DU-145 prostate): 21.3 µM
TGI (HT29 colon): 27.2 µM
TGI (HOP-62 NSCLC): 40.1 µM
TGI (SNB-19 CNS): 37.3 µM
TGI (SF-295 CNS): 73 µM
TGI (ACHN renal): 23.1 µM
